Assay results from PubChem BioAssay AID1259407 (Chemical Carcinogenesis Research Information System (CCRIS), 2018).
Calls of active or inactive are those of the source. The rule behind the calls is not given here.

Tested on: CCRIS mutagenicity, Ames/micronucleus/aberration tests
Assay: CCRIS mutagenicity studies

CC(=O)CC(=O)Nc1ccccc1
mutagenic call (End Point: In vitro chromosomal aberrations, Test System: Chinese hamster lung (CHL/IU) cells, Metabolic Activation: Rat, Liver, S9, Phenobarbital and 5,6-benzoflavone): inactive; negative | mutagenic call (Test System: AMES SALMONELLA TYPHIMURIUM, Strain/Indicator: TA97, Metabolic Activation: HAMSTER, LIVER, S-9, AROCLOR 1254 (10%), Method: PREINCUBATION): inactive; negative | mutagenic call (Test System: AMES SALMONELLA TYPHIMURIUM, Strain/Indicator: TA97, Metabolic Activation: HAMSTER, LIVER, S-9, AROCLOR 1254 (30%), Method: PREINCUBATION): inactive; negative | mutagenic call (Test System: AMES SALMONELLA TYPHIMURIUM, Strain/Indicator: TA97, Metabolic Activation: NONE, Method: PREINCUBATION): inactive; negative | mutagenic call (Test System: AMES SALMONELLA TYPHIMURIUM, Strain/Indicator: TA97, Metabolic Activation: RAT, LIVER, S-9, AROCLOR 1254 (10%), Method: PREINCUBATION): inactive; negative | mutagenic call (Test System: AMES SALMONELLA TYPHIMURIUM, Strain/Indicator: TA97, Metabolic Activation: RAT, LIVER, S-9, AROCLOR 1254 (30%), Method: PREINCUBATION): inactive; negative | mutagenic call (Test System: AMES SALMONELLA TYPHIMURIUM, Strain/Indicator: TA98, Metabolic Activation: HAMSTER, LIVER, S-9, AROCLOR 1254 (10%), Method: PREINCUBATION): inactive; negative | mutagenic call (Test System: AMES SALMONELLA TYPHIMURIUM, Strain/Indicator: TA98, Metabolic Activation: HAMSTER, LIVER, S-9, AROCLOR 1254 (30%), Method: PREINCUBATION): inactive; negative | mutagenic call (Test System: AMES SALMONELLA TYPHIMURIUM, Strain/Indicator: TA98, Metabolic Activation: NONE, Method: PREINCUBATION): inactive; negative | mutagenic call (Test System: AMES SALMONELLA TYPHIMURIUM, Strain/Indicator: TA98, Metabolic Activation: RAT, LIVER, S-9, AROCLOR 1254 (10%), Method: PREINCUBATION): inactive; negative | mutagenic call (Test System: AMES SALMONELLA TYPHIMURIUM, Strain/Indicator: TA98, Metabolic Activation: RAT, LIVER, S-9, AROCLOR 1254 (30%), Method: PREINCUBATION): inactive; negative | mutagenic call (Test System: AMES SALMONELLA TYPHIMURIUM, Strain/Indicator: TA100, Metabolic Activation: HAMSTER, LIVER, S-9, AROCLOR 1254 (10%), Method: PREINCUBATION): inactive; negative | mutagenic call (Test System: AMES SALMONELLA TYPHIMURIUM, Strain/Indicator: TA100, Metabolic Activation: HAMSTER, LIVER, S-9, AROCLOR 1254 (30%), Method: PREINCUBATION): inactive; negative | mutagenic call (Test System: AMES SALMONELLA TYPHIMURIUM, Strain/Indicator: TA100, Metabolic Activation: NONE, Method: PREINCUBATION): inactive; negative | mutagenic call (Test System: AMES SALMONELLA TYPHIMURIUM, Strain/Indicator: TA100, Metabolic Activation: RAT, LIVER, S-9, AROCLOR 1254 (10%), Method: PREINCUBATION): inactive; negative | mutagenic call (Test System: AMES SALMONELLA TYPHIMURIUM, Strain/Indicator: TA100, Metabolic Activation: RAT, LIVER, S-9, AROCLOR 1254 (30%), Method: PREINCUBATION): inactive; negative | mutagenic call (Test System: AMES SALMONELLA TYPHIMURIUM, Strain/Indicator: TA1535, Metabolic Activation: HAMSTER, LIVER, S-9, AROCLOR 1254 (10%), Method: PREINCUBATION): inactive; negative | mutagenic call (Test System: AMES SALMONELLA TYPHIMURIUM, Strain/Indicator: TA1535, Metabolic Activation: HAMSTER, LIVER, S-9, AROCLOR 1254 (30%), Method: PREINCUBATION): inactive; negative | mutagenic call (Test System: AMES SALMONELLA TYPHIMURIUM, Strain/Indicator: TA1535, Metabolic Activation: NONE, Method: PREINCUBATION): inactive; negative | mutagenic call (Test System: AMES SALMONELLA TYPHIMURIUM, Strain/Indicator: TA1535, Metabolic Activation: RAT, LIVER, S-9, AROCLOR 1254 (10%), Method: PREINCUBATION): inactive; negative | mutagenic call (Test System: AMES SALMONELLA TYPHIMURIUM, Strain/Indicator: TA1535, Metabolic Activation: RAT, LIVER, S-9, AROCLOR 1254 (30%), Method: PREINCUBATION): inactive; negative | mutagenic call (Test System: Ames Salmonella typhimurium, Strain/Indicator: TA98, Metabolic Activation: None, Method: Preincubation): inactive; negative | mutagenic call (Test System: Ames Salmonella typhimurium, Strain/Indicator: TA98, Metabolic Activation: Rat, Liver, S9, Sodium phenobarbital and 5,6-benzoflavone (10%), Method: Preincubation): inactive; negative | mutagenic call (Test System: Ames Salmonella typhimurium, Strain/Indicator: TA100, Metabolic Activation: None, Method: Preincubation): inactive; negative | mutagenic call (Test System: Ames Salmonella typhimurium, Strain/Indicator: TA100, Metabolic Activation: Rat, Liver, S9, Sodium phenobarbital and 5,6-benzoflavone (10%), Method: Preincubation): inactive; negative | mutagenic call (Test System: Ames Salmonella typhimurium, Strain/Indicator: TA1535, Metabolic Activation: None, Method: Preincubation): inactive; negative | mutagenic call (Test System: Ames Salmonella typhimurium, Strain/Indicator: TA1535, Metabolic Activation: Rat, Liver, S9, Sodium phenobarbital and 5,6-benzoflavone (10%), Method: Preincubation): inactive; negative | mutagenic call (Test System: Ames Salmonella typhimurium, Strain/Indicator: TA1537, Metabolic Activation: None, Method: Preincubation): inactive; negative | mutagenic call (Test System: Ames Salmonella typhimurium, Strain/Indicator: TA1537, Metabolic Activation: Rat, Liver, S9, Sodium phenobarbital and 5,6-benzoflavone (10%), Method: Preincubation): inactive; negative | mutagenic call (Test System: E. coli, Strain/Indicator: WP2uvrA/pKM101, Metabolic Activation: None, Method: Preincubation): active; positive | mutagenic call (Test System: E. coli, Strain/Indicator: WP2uvrA/pKM101, Metabolic Activation: Rat, Liver, S9, Sodium phenobarbital and 5,6-benzoflavone (10%), Method: Preincubation): active; positive
